Results on 7 compounds are retold here after PMC3769973 (Organic & biomolecular chemistry, 2011).

One may read the IC50 as the concentration at which inhibition is half-maximal. Low values mean greater potency, high ones weaker potency.

In one data set the target is proteasome β5 subunit (Homo sapiens, UniProt P28074). Kind of data set: Competition assay versus MVB003 in HEK293T lysate, β5 band. Format: biochemical.
Another data set deals with proteasome β2 subunit (Homo sapiens, UniProt Q99436). Kind of data set: Competition assay versus MVB003 in HEK293T lysate, β2 band. Format: biochemical.
Data set [1] addresses T1, proteasome β1 subunit (Homo sapiens, UniProt P28072). Kind of data set: Competition assay versus MVB003 in HEK293T lysate, β1 band. Format: biochemical.
Data set [2] has as its system proteasome in living HEK cells.
Data set [3] has as its target T1, proteasome β1 subunit. The data set is described as follows: Competition assay versus MVB003 in living HEK cells, β1 band. Format: cell-based. The conditions noted are these: inhibitor 4 h.

As to `CC(C)C[C@H](NC(=O)[C@@H](NC(=O)N[C@H](C(=O)O)C(C)C)C(C)C)C(=O)N[C@@H](CC(C)C)C(=O)[C@@]1(C)CO1` [Compound 14, HO-Val-urea-Val-Leu2-EK], the IC50 at proteasome β5 subunit worked out at 480 nM.

For the compound `CCCCCCCCCCNC(=O)N[C@H](C(=O)N[C@@H](CC(C)C)C(=O)N[C@@H](CC(C)C)C(=O)[C@@]1(C)CO1)C(C)C` [Compound 16, Decyl-urea-Val-Leu2-EK], the IC50 at proteasome β2 subunit and at proteasome β1 subunit [1] was over 50000 nM throughout.

For the compound `CC(C)C[C@H](NC(=O)[C@@H](NC(=O)N[C@H](C(=O)O)C(C)C)C(C)C)C(=O)[C@@]1(C)CO1` [Compound 6, HO-Val-urea-Val-Leu-EK], the IC50 was over 50000 nM at proteasome β2 subunit, over 50000 nM on proteasome β5 subunit and 1400 nM on proteasome β1 subunit [1].

For the compound `CC(C)C[C@H](NC(=O)[C@@H](NC(=O)N[C@H](C(=O)NCc1ccccc1)C(C)C)C(C)C)C(=O)N[C@@H](CC(C)C)C(=O)[C@@]1(C)CO1` [Compound 15, Benzylamide-Val-urea-Val-Leu2-EK], the Cell permeability result in data set [2] is recorded as “cell permeable”. In addition, on proteasome β5 subunit (HEK lysate, Fig. 7), the “Fold lower concentration for β5 inhibition compared to SylA” value is “about 100 fold”.

`CC(C)C[C@H](NC(=O)[C@@H](NC(=O)N[C@H](C(=O)OC(C)(C)C)C(C)C)C(C)C)C(=O)[C@@]1(C)CO1` [Compound 5, tBuO-Val-urea-Val-Leu-EK2]: the IC50 at proteasome β2 subunit was over 50000 nM; at proteasome β5 subunit it was about 50000 nM; on proteasome β1 subunit [1], 460 nM. Besides, the “Potency in living HEK cells relative to NC001” value on proteasome β1 subunit [3] is recorded as “fivefold higher potency”.

On to `CC(C)C[C@H](NC(=O)[C@@H](NC(=O)N[C@H](C(=O)NCc1ccccc1)C(C)C)C(C)C)C(=O)[C@@]1(C)CO1` [Compound 7, Benzylamide-Val-urea-Val-Leu-EK], for which the figures for the IC50 on proteasome β2 subunit, at proteasome β5 subunit and at proteasome β1 subunit [1] were over 50000 nM, 2900 nM and 520 nM, respectively.

As to `CC(C)C[C@H](NC(=O)[C@@H](NC(=O)N[C@H](C(=O)OC(C)(C)C)C(C)C)C(C)C)C(=O)N[C@@H](CC(C)C)C(=O)[C@@]1(C)CO1` [Compound 13, tBuO-Val-urea-Val-Leu2-EK], the IC50 on proteasome β2 subunit worked out at 690 nM; at proteasome β5 subunit, 16 nM; at proteasome β1 subunit [1], 1300 nM. Further, the Cell permeability entry in data set [2] is given as “cell permeable”. Further, the “Fold lower concentration for β5 inhibition compared to SylA” value on proteasome β5 subunit (HEK lysate, Fig. 7) is given as “about 100 fold”. For the same compound, on proteasome β5 subunit (HEK lysate, at 100 nM inhibitor, Fig. 7), the “Inhibition of β5 in HEK lysate” value is given as “fully inhibits”.
